The values that follow come from patent US20250051327A1, “MALT-1 MODULATORS” (EXSCIENTIA AI LIMITED, priority 2020, published 2025).

Where two headings read alike, the source gives them in different places.

Experiment [1] deals with Recombinant human MALT-1 (amino acids 340-824) (Homo sapiens (Human), UniProt Q9UDY8). Kind of experiment: MALT-1 inhibition assay (fluorogenic substrate Ac-LRSR-Rh110-DP). Type of experiment: biochemical. The conditions noted are these: recombinant human MALT-1, substrate Ac-LRSR-Rh110-DP. In short, it runs like this:
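Reactions were started with fluorogenic substrate Ac-LRSR-Rh110-DP (10 μM final) against 3 nM enzyme and kept dark at 25° C for 60 minutes. IC50 values came from 4-parameter logistic fits of percent inhibition calculated from relative fluorescence units.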

In experiment [2] the test system is IL-2 secretion by human effector memory T cells (TEM). Kind of experiment: Effector memory T cells IL-2 release assay. Particulars: human CD4+ effector memory T cells, CD3/CD28 bead stimulation, 24 h, read-out: CD4TC IL2 IC50. Type of experiment: cell-based. An outline of the steps: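 Human CD4+ effector memory T cells from healthy-donor buffy coats were stimulated with anti-CD3/CD28 Dynabeads and exposed to 10 semi-log compound doses (0.1% DMSO) for 24 h at 37 °C. Supernatant IL-2 was measured by HTRF, and IC50 came from a 4-parameter logistic fit to maximal IL-2. Viability was checked by flow cytometry.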

Recombinant human MALT-1 (amino acids 340-824), sequence (Q9UDY8 340-824): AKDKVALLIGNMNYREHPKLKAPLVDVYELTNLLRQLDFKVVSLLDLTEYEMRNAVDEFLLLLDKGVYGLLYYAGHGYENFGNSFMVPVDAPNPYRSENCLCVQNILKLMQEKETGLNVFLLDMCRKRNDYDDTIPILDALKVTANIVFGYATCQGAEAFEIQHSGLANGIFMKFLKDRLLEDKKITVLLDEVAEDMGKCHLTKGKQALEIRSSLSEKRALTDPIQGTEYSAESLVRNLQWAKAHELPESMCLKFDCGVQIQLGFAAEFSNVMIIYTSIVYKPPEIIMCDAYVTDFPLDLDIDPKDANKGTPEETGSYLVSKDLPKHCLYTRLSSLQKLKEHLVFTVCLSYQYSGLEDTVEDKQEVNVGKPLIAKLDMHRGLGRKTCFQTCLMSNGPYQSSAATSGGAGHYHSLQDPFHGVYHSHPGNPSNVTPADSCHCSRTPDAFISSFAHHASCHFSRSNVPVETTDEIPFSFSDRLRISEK

For orientation: IC50 means the point on the concentration scale where inhibition reaches its midpoint. As to `CC1CCc2c(cnc3cc(Cl)nn23)N1c1ccc([C@H](N(C)C(=O)C2CCS(=O)(=O)CC2)C(F)(F)F)cc1` (stereo partly drawn) [CPD0072806, N-[(1S)-1-{4-[(11rel-R)-4-chloro-11-methyl-2,3,7,10-tetraazatricyclo[7.4.0.0^2,6]trideca-1(9),3,5,7-tetraen-10-yl]phenyl}-2,2,2-trifluoroethyl]-N-methyl-1,1-dioxo-1λ^6-thiane-4-carboxamide], the IC50 in experiment [1] was found to be 69 nM; in experiment [2], 206 nM.
With `COC(=O)N1CCC(C(=O)N(C)[C@@H](c2ccc(N3CCCc4c3cnc3cc(Cl)nn43)cc2)C(F)(F)F)CC1` [CPD0073691, methyl 4-{[(1S)-1-(4-{4-chloro-2,3,7,10-tetraazatricyclo[7.4.0.0^2,6]trideca-1(9),3,5,7-tetraen-10-yl}phenyl)-2,2,2-trifluoroethyl](methyl)carbamoyl}piperidine-1-carboxylate], the IC50 in experiment [1] amounted to 101 nM; in experiment [2] (T-cell) it was 149 nM.
In the case of `CN(C(=O)C1CC2(C1)CS(=O)(=O)C2)[C@@H](c1ccc(N2CCCc3c2cnc2cc(Cl)nn32)cc1)C(F)(F)F` [CPD0072937, N-[(1S)-1-(4-{4-chloro-2,3,7,10-tetraazatricyclo[7.4.0.0^2,6]trideca-1(9),3,5,7-tetraen-10-yl}phenyl)-2,2,2-trifluoroethyl]-N-methyl-2,2-dioxo-2λ^6-thiaspiro[3.3]heptane-6-carboxamide], the IC50 in experiment [1] worked out at 75 nM; in experiment [2] (T-cell), 93 nM.
In the same order, the values of `CN(C(=O)C[C@H]1CCS(=O)(=O)C1)[C@@H](c1ccc(N2CCCc3c2cnc2cc(Cl)nn32)cc1)C(F)(F)F` (relative stereo) [CPD0072799, N-[(1S)-1-(4-{4-chloro-2,3,7,10-tetraazatricyclo[7.4.0.0^2,6]trideca-1(9),3,5,7-tetraen-10-yl}phenyl)-2,2,2-trifluoroethyl]-2-[(3rel-S)-1,1-dioxo-1λ^6-thiolan-3-yl]-N-methylacetamide] are 88 nM and 178 nM.
`CN(C(=O)[C@H]1CC[S@+]([O-])CC1)[C@@H](c1ccc(N2CCC(C)(C)c3c2cnc2cc(Cl)nn32)cc1)C(F)(F)F` (relative stereo) [CPD0072777, (1rel-r,4rel-r)-N-[(1S)-1-(4-{4-chloro-13,13-dimethyl-2,3,7,10-tetraazatricyclo[7.4.0.0^2,6]trideca-1(9),3,5,7-tetraen-10-yl}phenyl)-2,2,2-trifluoroethyl]-N-methyl-1-oxo-1λ^4-thiane-4-carboxamide]: the IC50 in experiment [1] is 62 nM; in experiment [2] (T-cell), 36 nM.
In the case of `CN(C(=O)C1CN(C(=O)[C@H]2CCO2)C1)[C@@H](c1ccc(N2CCCc3c2cnc2cc(Cl)nn32)cc1)C(F)(F)F` (relative stereo) [CPD0073562, N-[(1S)-1-(4-{4-chloro-2,3,7,10-tetraazatricyclo[7.4.0.0^2,6]trideca-1(9),3,5,7-tetraen-10-yl}phenyl)-2,2,2-trifluoroethyl]-N-methyl-1-[(2rel-R)-oxetane-2-carbonyl]azetidine-3-carboxamide], the IC50 in experiment [1] is 80 nM; in experiment [2] (T-cell), 352 nM.
As for `Cc1cc(N2CCCc3c2cnc2cc(Cl)nn32)ccc1[C@H](N(C)C(=O)C1CCS(=O)(=O)CC1)C(F)(F)F` [CPD0072808, N-[(1S)-1-(4-{4-chloro-2,3,7,10-tetraazatricyclo[7.4.0.0^2,6]trideca-1(9),3,5,7-tetraen-10-yl}-2-methylphenyl)-2,2,2-trifluoroethyl]-N-methyl-1,1-dioxo-1λ^6-thiane-4-carboxamide], the IC50 in experiment [1] was found to be 127 nM; in experiment [2] (T-cell), 237 nM.
Turning to `CN(C(=O)C1CCS(=O)(=O)C1)[C@@H](c1ccc(N2CCCc3c2cnc2cc(Cl)nn32)cc1)C(F)(F)F` (stereo partly shown) [CPD0021573], the IC50 in experiment [1] was found to be 131 nM; in experiment [2] (T-cell), 85 nM.
For `CN(C(=O)CC1CCS(=O)(=O)CC1)[C@@H](c1ccc(N2CCCc3c2cnc2cc(Cl)nn32)cc1)C(F)(F)F` [CPD0073088], the concentration for half-maximal inhibition (IC50) in experiment [1] was found to be 91 nM; in experiment [2] (T-cell) it was 142 nM.
As to `CC(=O)N1CCC[C@H](C(=O)N(C)[C@@H](c2ccc(N3CCCc4c3cnc3cc(Cl)nn43)cc2)C(F)(F)F)C1` (relative stereo) [CPD0073500, (3rel-S)-1-acetyl-N-[(1S)-1-(4-{4-chloro-2,3,7,10-tetraazatricyclo[7.4.0.0^2,6]trideca-1(9),3,5,7-tetraen-10-yl}phenyl)-2,2,2-trifluoroethyl]-N-methylpiperidine-3-carboxamide], the IC50 was 167 nM in experiment [1] and 267 nM in experiment [2] (T-cell).
For `C[C@@H]1CCN(c2ccc([C@H](N(C)C(=O)[C@H]3CCC(=O)NC3)C(F)(F)F)cc2)c2cnc3cc(Cl)nn3c21` (relative stereo) [CPD0074549, (3rel-S)-N-[(1S)-1-[4-[(13rel-R)-4-chloro-13-methyl-2,3,7,10-tetrazatricyclo[7.4.0.0^2,6]trideca-1(9),3,5,7-tetraen-10-yl]phenyl]-2,2,2-trifluoro-ethyl]-N-methyl-6-oxo-piperidine-3-carboxamide], the half-inhibitory concentration (IC50) in experiment [1] turned out to be 37 nM; in experiment [2] (T-cell), 142 nM.
